Measurements from ChEMBL document CHEMBL1201862, “PubChem BioAssay data set” (2004).
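Method: 48-hour compound exposure of cells in 96-well plates, five concentrations, linear interpolation of endpoints. The concentration for 50% growth inhibition is given as GI50.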 Activity calls are given as the source filed them. No stated cut-off is given here; in the data, active = GI50 up to about 1.1 µM and inactive = higher.

Tests used:
Experiment in all cases: NCI tumour cell line growth inhibition, 48 h
T47D = tested on: T47D
SF-295 = tested on: SF-295
SW-620 = tested on: SW-620
A549 = tested on: A549
RPMI-8226 = tested on: RPMI-8226
MCF7 = tested on: MCF7
UO-31 = tested on: UO-31
IGROV-1 = tested on: IGROV-1
SF-268 = tested on: SF-268
CCRF-CEM = tested on: CCRF-CEM
RXF 393 = tested on: RXF 393
SK-MEL-2 = tested on: SK-MEL-2
UACC-257 = tested on: UACC-257
MDA-MB-231 = tested on: MDA-MB-231
CAKI-1 = tested on: CAKI-1
NCI-H226 = tested on: NCI-H226
OVCAR-8 = tested on: OVCAR-8
PC-3 = tested on: PC-3
SNB-75 = tested on: SNB-75
SK-OV-3 = tested on: SK-OV-3
EKVX = tested on: EKVX
786-0 = tested on: 786-0
U-251 = tested on: U-251
HOP-92 = tested on: HOP-92
KM12 = tested on: KM12
OVCAR-3 = tested on: OVCAR-3
NCI-H23 = tested on: NCI-H23
K562 = tested on: K562
COLO 205 = tested on: COLO 205
SK-MEL-5 = tested on: SK-MEL-5
A498 = tested on: A498
HT-29 = tested on: HT-29
TK-10 = tested on: TK-10
SF-539 = tested on: SF-539
MOLT-4 = tested on: MOLT-4
MDA-MB-435 = tested on: MDA-MB-435
HCC 2998 = tested on: HCC 2998
HCT-116 = tested on: HCT-116
SK-MEL-28 = tested on: SK-MEL-28
SNB-19 = tested on: SNB-19
LOX IMVI = tested on: LOX IMVI
OVCAR-5 = tested on: OVCAR-5
Hs-578T = tested on: Hs-578T
M14 = tested on: M14
NCI-H522 = tested on: NCI-H522
ACHN = tested on: ACHN
UACC-62 = tested on: UACC-62
HCT-15 = tested on: HCT-15
SN12C = tested on: SN12C
BT-549 = tested on: BT-549
OVCAR-4 = tested on: OVCAR-4
NCI/ADR-RES = tested on: NCI/ADR-RES
DU-145 = tested on: DU-145
HOP-62 = tested on: HOP-62
NCI-H460 = tested on: NCI-H460
HL-60 = tested on: HL-60
Malme-3M = tested on: Malme-3M
SR = tested on: SR

CCCCCCCCCCCCCCCCCCNc1ccn(C2OC(COP(=O)(O)O)C(O)C2O)c(=O)n1 (stereo unspecified)
GI50 (T47D): > 100 µM (inactive) | GI50 (SF-295): > 100 µM (inactive) | GI50 (SW-620): > 100 µM (inactive) | GI50 (A549): > 100 µM (inactive) | GI50 (RPMI-8226): > 100 µM (inactive) | GI50 (MCF7): > 100 µM (inactive) | GI50 (UO-31): > 100 µM (inactive) | GI50 (IGROV-1): > 100 µM (inactive) | GI50 (SF-268): > 100 µM (inactive) | GI50 (CCRF-CEM): > 100 µM (inactive) | GI50 (RXF 393): > 100 µM (inactive) | GI50 (SK-MEL-2): > 100 µM (inactive) | GI50 (UACC-257): > 100 µM (inactive) | GI50 (MDA-MB-231): > 100 µM (inactive) | GI50 (CAKI-1): > 100 µM (inactive) | GI50 (NCI-H226): > 100 µM (inactive) | GI50 (OVCAR-8): > 100 µM (inactive) | GI50 (PC-3): > 100 µM (inactive) | GI50 (SNB-75): > 100 µM (inactive) | GI50 (SK-OV-3): > 100 µM (inactive) | GI50 (EKVX): > 100 µM (inactive) | GI50 (786-0): > 100 µM (inactive) | GI50 (U-251): > 100 µM (inactive) | GI50 (HOP-92): > 100 µM (inactive) | GI50 (KM12): > 100 µM (inactive) | GI50 (OVCAR-3): > 100 µM (inactive) | GI50 (NCI-H23): > 100 µM (inactive) | GI50 (K562): > 100 µM (inactive) | GI50 (COLO 205): > 100 µM (inactive) | GI50 (SK-MEL-5): > 100 µM (inactive) | GI50 (A498): > 100 µM (inactive) | GI50 (HT-29): > 100 µM (inactive) | GI50 (TK-10): > 100 µM (inactive) | GI50 (SF-539): > 100 µM (inactive) | GI50 (MOLT-4): > 100 µM (inactive) | GI50 (MDA-MB-435): > 100 µM (inactive) | GI50 (HCC 2998): > 100 µM (inactive) | GI50 (HCT-116): > 100 µM (inactive) | GI50 (SK-MEL-28): > 100 µM (inactive) | GI50 (SNB-19): > 100 µM (inactive) | GI50 (LOX IMVI): > 100 µM (inactive) | GI50 (OVCAR-5): > 100 µM (inactive) | GI50 (Hs-578T): > 100 µM (inactive) | GI50 (M14): > 100 µM (inactive) | GI50 (NCI-H522): > 100 µM (inactive) | GI50 (ACHN): > 100 µM (inactive) | GI50 (UACC-62): > 100 µM (inactive) | GI50 (HCT-15): > 100 µM | GI50 (SN12C): > 100 µM (inactive) | GI50 (BT-549): > 100 µM (inactive) | GI50 (OVCAR-4): > 100 µM (inactive) | GI50 (NCI/ADR-RES): > 100 µM (inactive) | GI50 (DU-145): > 100 µM (inactive) | GI50 (HOP-62): > 100 µM (inactive)

CO[C@]12C[C@H](CNC(=O)c3ccc[nH]3)O[C@H]1NC(=O)N2
GI50 (T47D): > 100 µM (inactive) | GI50 (SF-295): > 100 µM (inactive) | GI50 (SW-620): > 100 µM (inactive) | GI50 (A549): > 100 µM (inactive) | GI50 (RPMI-8226): > 100 µM (inactive) | GI50 (MCF7): > 100 µM (inactive) | GI50 (UO-31): > 100 µM (inactive) | GI50 (IGROV-1): > 100 µM (inactive) | GI50 (SF-268): > 100 µM (inactive) | GI50 (CCRF-CEM): > 100 µM (inactive) | GI50 (SK-MEL-2): > 100 µM (inactive) | GI50 (UACC-257): > 100 µM (inactive) | GI50 (MDA-MB-231): > 100 µM (inactive) | GI50 (CAKI-1): > 100 µM (inactive) | GI50 (NCI-H226): > 100 µM (inactive) | GI50 (OVCAR-8): > 100 µM (inactive) | GI50 (PC-3): > 100 µM (inactive) | GI50 (NCI-H460): > 100 µM (inactive) | GI50 (SK-OV-3): > 100 µM (inactive) | GI50 (EKVX): > 100 µM (inactive) | GI50 (786-0): > 100 µM (inactive) | GI50 (U-251): > 100 µM (inactive) | GI50 (HOP-92): > 100 µM (inactive) | GI50 (KM12): > 100 µM (inactive) | GI50 (OVCAR-3): > 100 µM (inactive) | GI50 (NCI-H23): > 100 µM (inactive) | GI50 (K562): > 100 µM (inactive) | GI50 (COLO 205): > 100 µM (inactive) | GI50 (SK-MEL-5): > 100 µM (inactive) | GI50 (A498): > 100 µM (inactive) | GI50 (HL-60): > 100 µM (inactive) | GI50 (Malme-3M): > 100 µM (inactive) | GI50 (HT-29): 33.7 µM (inactive) | GI50 (TK-10): > 100 µM (inactive) | GI50 (SF-539): > 100 µM (inactive) | GI50 (MDA-MB-435): > 100 µM (inactive) | GI50 (HCT-116): > 100 µM (inactive) | GI50 (SNB-19): > 100 µM (inactive) | GI50 (LOX IMVI): > 100 µM (inactive) | GI50 (OVCAR-5): > 100 µM (inactive) | GI50 (Hs-578T): > 100 µM (inactive) | GI50 (SR): 9.31 µM (inactive) | GI50 (M14): > 100 µM (inactive) | GI50 (NCI-H522): > 100 µM (inactive) | GI50 (ACHN): > 100 µM (inactive) | GI50 (UACC-62): > 100 µM (inactive) | GI50 (HCT-15): > 100 µM | GI50 (SN12C): > 100 µM (inactive) | GI50 (BT-549): > 100 µM (inactive) | GI50 (NCI/ADR-RES): > 100 µM (inactive) | GI50 (DU-145): > 100 µM (inactive) | GI50 (HOP-62): > 100 µM (inactive)
